Legend:
[1] = target: Activated CDC42 kinase 1 (Homo sapiens) (UniProt Q07912); assay: Inhibition of ACK1 (unknown origin) at 10 uM after 120 mins P33 radiolabeled kinase activity assay
[2] = target: Protein kinase C alpha type (Homo sapiens) (UniProt P17252); assay: Inhibition of PKCalpha (unknown origin) at 10 uM after 120 mins P33 radiolabeled kinase activity assay
[3] = target: Tyrosine-protein kinase HCK (Homo sapiens) (UniProt P08631); assay: Inhibition of HCK (unknown origin) at 10 uM after 120 mins P33 radiolabeled kinase activity assay
Chain of Tyrosine-protein kinase HCK (Homo sapiens) (P08631 2-526 limits assumed): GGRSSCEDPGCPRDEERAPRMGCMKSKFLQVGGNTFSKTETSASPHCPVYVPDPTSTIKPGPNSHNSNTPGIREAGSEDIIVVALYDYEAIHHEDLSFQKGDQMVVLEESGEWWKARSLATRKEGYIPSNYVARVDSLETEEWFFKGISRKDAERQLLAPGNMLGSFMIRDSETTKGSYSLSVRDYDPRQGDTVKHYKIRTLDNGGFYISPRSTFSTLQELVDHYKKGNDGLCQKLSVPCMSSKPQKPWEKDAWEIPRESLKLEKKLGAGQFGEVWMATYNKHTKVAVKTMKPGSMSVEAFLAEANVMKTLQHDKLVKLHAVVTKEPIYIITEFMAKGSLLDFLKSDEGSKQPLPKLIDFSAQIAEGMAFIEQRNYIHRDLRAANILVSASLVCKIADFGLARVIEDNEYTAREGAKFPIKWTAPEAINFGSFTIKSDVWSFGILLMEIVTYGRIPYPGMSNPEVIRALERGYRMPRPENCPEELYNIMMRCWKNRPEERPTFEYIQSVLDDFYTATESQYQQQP

[4] = target: Dual specificity tyrosine-phosphorylation-regulated kinase 1B (Homo sapiens) (UniProt Q9Y463); assay: Inhibition of DYRK1B (unknown origin) at 10 uM after 120 mins P33 radiolabeled kinase activity assay
Chain of Dual specificity tyrosine-phosphorylation-regulated kinase 1B (Homo sapiens) (Q9Y463 whole entry, looked up): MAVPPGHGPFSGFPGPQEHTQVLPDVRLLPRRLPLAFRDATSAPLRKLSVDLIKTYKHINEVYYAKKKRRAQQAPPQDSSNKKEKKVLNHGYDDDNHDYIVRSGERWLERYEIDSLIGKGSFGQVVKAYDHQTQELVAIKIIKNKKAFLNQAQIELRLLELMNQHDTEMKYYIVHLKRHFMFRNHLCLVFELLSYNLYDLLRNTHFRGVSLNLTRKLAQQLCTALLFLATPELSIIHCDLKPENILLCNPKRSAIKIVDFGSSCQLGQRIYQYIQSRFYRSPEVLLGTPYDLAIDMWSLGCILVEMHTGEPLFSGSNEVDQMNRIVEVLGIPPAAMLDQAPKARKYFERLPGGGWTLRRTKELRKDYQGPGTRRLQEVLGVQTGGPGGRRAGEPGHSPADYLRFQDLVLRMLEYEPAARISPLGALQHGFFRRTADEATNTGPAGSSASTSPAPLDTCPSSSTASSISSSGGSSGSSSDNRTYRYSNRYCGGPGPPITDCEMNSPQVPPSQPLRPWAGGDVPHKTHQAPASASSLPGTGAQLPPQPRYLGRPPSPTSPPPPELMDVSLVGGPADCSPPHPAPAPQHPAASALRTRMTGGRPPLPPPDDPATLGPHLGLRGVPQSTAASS

[5] = target: T1, Receptor-interacting serine/threonine-protein kinase 1 (Homo sapiens) (UniProt Q13546); assay: Inhibition of RIP (unknown origin) at 10 uM after 120 mins P33 radiolabeled kinase activity assay
T1 sequence (whole entry): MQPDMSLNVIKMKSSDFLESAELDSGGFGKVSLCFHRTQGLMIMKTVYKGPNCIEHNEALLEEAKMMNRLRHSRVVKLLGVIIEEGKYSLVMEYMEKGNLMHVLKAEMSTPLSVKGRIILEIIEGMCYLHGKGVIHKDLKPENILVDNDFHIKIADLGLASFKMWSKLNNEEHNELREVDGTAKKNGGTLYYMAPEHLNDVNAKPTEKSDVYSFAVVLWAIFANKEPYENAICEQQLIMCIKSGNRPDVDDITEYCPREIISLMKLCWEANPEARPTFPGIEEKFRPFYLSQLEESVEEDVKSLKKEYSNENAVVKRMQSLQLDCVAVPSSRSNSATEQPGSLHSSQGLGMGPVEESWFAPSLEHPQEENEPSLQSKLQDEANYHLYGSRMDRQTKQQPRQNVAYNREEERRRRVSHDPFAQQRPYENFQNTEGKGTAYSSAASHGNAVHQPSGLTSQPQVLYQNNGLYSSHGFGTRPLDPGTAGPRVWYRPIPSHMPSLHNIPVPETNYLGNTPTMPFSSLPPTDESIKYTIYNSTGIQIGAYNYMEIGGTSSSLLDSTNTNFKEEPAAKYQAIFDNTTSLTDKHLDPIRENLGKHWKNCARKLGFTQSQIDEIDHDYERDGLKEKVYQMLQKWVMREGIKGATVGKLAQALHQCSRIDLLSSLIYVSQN

[6] = target: Serine/threonine-protein kinase MRCK gamma (Homo sapiens) (UniProt Q6DT37); assay: Inhibition of DMPK2 (unknown origin) at 10 uM after 120 mins P33 radiolabeled kinase activity assay
Chain of Serine/threonine-protein kinase MRCK gamma (Homo sapiens) (Q6DT37 whole entry, the tested form may be a part): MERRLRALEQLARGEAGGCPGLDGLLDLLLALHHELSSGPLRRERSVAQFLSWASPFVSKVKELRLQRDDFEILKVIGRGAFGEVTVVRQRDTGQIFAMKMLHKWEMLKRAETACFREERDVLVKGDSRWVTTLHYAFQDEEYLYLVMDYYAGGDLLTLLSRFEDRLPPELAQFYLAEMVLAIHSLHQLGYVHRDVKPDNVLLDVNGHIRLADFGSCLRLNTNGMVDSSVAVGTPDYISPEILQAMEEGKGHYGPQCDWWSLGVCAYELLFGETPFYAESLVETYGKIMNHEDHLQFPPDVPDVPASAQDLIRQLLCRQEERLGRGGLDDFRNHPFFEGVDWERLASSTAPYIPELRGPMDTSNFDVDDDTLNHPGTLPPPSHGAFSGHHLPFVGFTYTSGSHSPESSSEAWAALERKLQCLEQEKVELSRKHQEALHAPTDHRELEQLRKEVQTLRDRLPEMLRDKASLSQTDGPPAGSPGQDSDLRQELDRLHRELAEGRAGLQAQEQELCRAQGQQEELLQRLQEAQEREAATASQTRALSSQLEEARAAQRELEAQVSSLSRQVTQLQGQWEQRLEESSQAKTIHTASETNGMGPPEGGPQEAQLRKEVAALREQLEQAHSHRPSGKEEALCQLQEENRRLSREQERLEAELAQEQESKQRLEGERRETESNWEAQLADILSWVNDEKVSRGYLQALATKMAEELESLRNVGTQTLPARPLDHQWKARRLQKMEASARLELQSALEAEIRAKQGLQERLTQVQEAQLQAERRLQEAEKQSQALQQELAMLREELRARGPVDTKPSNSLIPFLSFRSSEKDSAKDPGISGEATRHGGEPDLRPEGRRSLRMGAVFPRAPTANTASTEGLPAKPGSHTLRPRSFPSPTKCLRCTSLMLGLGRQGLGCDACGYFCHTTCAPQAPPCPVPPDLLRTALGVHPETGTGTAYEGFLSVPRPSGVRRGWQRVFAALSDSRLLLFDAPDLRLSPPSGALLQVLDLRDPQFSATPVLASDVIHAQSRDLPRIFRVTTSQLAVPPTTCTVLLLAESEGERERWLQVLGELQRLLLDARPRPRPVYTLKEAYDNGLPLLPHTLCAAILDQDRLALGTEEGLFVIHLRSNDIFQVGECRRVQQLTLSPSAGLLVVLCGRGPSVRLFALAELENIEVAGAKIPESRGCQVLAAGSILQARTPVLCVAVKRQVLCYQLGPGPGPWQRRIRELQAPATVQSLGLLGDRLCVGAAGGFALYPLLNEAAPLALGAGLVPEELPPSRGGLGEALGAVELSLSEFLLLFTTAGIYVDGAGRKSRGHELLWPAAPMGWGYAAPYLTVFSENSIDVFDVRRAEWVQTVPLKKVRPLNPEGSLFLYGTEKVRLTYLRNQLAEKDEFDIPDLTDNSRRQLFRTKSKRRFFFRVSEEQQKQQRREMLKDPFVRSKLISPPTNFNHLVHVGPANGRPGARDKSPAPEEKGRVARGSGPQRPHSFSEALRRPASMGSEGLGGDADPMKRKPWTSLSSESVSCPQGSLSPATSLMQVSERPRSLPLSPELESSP

[7] = target: T2, Discoidin domain-containing receptor 2 (Homo sapiens) (UniProt Q16832); assay: Inhibition of DDR2 (unknown origin) at 10 uM after 120 mins P33 radiolabeled kinase activity assay
T2 sequence (whole entry): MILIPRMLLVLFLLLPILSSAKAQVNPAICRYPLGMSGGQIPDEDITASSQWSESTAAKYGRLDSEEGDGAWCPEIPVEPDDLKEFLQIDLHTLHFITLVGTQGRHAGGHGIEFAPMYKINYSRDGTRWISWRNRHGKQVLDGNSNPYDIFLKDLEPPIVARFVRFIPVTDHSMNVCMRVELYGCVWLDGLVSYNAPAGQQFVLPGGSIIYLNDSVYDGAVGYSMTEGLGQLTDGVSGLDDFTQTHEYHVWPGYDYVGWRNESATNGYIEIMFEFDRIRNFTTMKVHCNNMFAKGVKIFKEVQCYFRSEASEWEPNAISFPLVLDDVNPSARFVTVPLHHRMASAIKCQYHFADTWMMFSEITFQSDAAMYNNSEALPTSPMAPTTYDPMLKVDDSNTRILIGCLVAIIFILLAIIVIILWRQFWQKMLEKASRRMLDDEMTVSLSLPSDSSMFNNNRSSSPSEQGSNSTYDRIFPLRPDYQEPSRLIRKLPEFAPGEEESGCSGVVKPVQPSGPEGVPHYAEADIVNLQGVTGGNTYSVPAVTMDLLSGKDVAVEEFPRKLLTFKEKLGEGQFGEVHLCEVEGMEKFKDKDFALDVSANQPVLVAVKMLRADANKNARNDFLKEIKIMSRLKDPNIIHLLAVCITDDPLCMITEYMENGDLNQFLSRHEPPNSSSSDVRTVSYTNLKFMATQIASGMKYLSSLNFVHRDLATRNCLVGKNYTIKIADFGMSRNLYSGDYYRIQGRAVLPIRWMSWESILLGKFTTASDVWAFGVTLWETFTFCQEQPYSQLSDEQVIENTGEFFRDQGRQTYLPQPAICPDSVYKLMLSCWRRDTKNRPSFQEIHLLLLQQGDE

[8] = target: Glycogen synthase kinase-3 beta (Homo sapiens) (UniProt P49841); assay: Inhibition of GSK3beta (unknown origin) at 10 uM after 120 mins P33 radiolabeled kinase activity assay
Chain of Glycogen synthase kinase-3 beta (Homo sapiens) (P49841 whole entry, looked up): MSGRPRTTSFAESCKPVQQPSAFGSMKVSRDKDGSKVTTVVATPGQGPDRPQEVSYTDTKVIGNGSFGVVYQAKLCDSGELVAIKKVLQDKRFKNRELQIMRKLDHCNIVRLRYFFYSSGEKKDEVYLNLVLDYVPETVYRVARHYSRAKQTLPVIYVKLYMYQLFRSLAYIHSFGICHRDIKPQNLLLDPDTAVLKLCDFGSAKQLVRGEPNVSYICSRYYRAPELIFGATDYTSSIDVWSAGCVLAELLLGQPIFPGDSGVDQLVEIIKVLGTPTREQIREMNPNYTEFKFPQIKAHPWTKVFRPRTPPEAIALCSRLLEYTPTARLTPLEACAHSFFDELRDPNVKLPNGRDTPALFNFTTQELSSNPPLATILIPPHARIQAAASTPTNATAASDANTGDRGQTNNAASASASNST

[9] = target: Mitogen-activated protein kinase kinase kinase kinase 5 (Homo sapiens) (UniProt Q9Y4K4); assay: Inhibition of KHS (unknown origin) at 10 uM after 120 mins P33 radiolabeled kinase activity assay
[10] = target: Epidermal growth factor receptor (Homo sapiens) (UniProt P00533); assay: Inhibition of EGFR (unknown origin) at 10 uM after 120 mins P33 radiolabeled kinase activity assay
[11] = target: Serine/threonine-protein kinase N3 (Homo sapiens) (UniProt Q6P5Z2); assay: Inhibition of PKN3 (unknown origin) at 10 uM after 120 mins P33 radiolabeled kinase activity assay
Chain of Serine/threonine-protein kinase N3 (Homo sapiens) (Q6P5Z2 whole entry, looked up): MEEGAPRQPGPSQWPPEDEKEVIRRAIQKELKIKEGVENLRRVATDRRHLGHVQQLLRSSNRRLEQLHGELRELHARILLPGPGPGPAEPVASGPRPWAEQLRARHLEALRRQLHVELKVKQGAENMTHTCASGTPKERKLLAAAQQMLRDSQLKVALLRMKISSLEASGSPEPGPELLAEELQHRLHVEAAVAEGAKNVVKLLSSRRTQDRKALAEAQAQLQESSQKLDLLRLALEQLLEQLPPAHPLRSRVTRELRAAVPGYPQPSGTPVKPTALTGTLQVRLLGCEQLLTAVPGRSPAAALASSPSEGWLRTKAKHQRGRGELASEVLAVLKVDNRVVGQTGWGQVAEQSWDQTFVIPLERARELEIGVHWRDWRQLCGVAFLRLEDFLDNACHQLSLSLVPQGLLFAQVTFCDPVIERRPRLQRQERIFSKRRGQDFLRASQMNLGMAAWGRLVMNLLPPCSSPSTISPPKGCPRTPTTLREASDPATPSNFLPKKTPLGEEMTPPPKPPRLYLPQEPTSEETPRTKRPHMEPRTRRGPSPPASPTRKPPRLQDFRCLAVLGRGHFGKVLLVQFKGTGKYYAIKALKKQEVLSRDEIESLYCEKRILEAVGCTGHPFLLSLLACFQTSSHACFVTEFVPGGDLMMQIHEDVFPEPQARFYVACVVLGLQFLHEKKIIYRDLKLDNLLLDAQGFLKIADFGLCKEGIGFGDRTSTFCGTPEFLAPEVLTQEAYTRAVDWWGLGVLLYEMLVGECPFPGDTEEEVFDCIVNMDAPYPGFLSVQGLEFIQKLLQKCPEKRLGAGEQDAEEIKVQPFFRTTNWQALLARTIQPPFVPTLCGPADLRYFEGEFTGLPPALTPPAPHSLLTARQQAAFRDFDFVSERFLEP

Row | inhibition [1] | inhibition [2] | inhibition [3] | inhibition [4] | inhibition [5] | inhibition [6] | inhibition [7] | inhibition [8] | inhibition [9] | inhibition [10] | inhibition [11] | SMILES
1 | 96.5% | -5.32% | 99.2% | 27.5% | 54.4% | -3.32% | 99% | 98.9% | 93.5% | 88% | 28.3% | CS(=O)(=O)c1cccc(Nc2nccc(-c3sc(N4CCOCC4)nc3-c3cccc(NS(=O)(=O)c4c(F)cccc4F)c3)n2)c1
2 | 16.4% | -4.59% | 70% | 11.4% | 33.1% | -3.48% | 28.2% | 16.9% | 33.6% | 7.68% | 17.9% | COCCNC(=O)c1ccc2c(c1)nc(-c1cnc(-c3ccc(Cl)cc3)[nH]1)n2CCOC
3 | 21.6% | -7.51% | 91.1% | 14.5% | 53.2% | -1.44% | 98% | 34.9% | 90% | 6.23% | 31.5% | CC(C)(C)c1cc(NC(=O)Nc2ccc(Oc3ccncc3)cc2)no1

Reference: ChEMBL document CHEMBL3627608, “Crystal structures of human RIP2 kinase catalytic domain complexed with ATP-competitive inhibitors: Foundations for understanding inhibitor selectivity” (Bioorg Med Chem, 2015)
